From publication PMC9374667 (Communications Biology, 2022)
Several values for one entry are separate records, joined by “and”; a condition that tells them apart may be missing. Equal entries are not always repeated.

Assays:
[1] = Solubility in water and octanol and log P at 25°C; details: for solubility: 25 °C
Source text: beyond changes in oral bioavailability and solubility. This is particularly relevant when […]
L og P is the logarithmic value of the oil-water partition coefficient P, which refers to the partition equilibrium of undissociated molecules in the oil and water phases. The log P value is closely related to the water solubility, membrane permeability, in vivo ADME process, and affinity of the compound to the receptor and plays a vital role in the permeation of compounds through biological membranes. The log P 0-5 range is optimal for oral drug penetration by passive diffusion, with poor water solubility for high log P compounds and poor lipid […]
experiments to exert drug activity in cells.

[2] = system: F4/80-positive macrophages; test: Immunohistochemical staining of eWAT for F4/80; format: in vivo, mice; details: for Quantification of immunohistochemical staining: Figure 5k, individual values; for Proportion of F4/80-positive macrophages around adipocytes: db/db mice, epididymal fat pads
Description: The adipose tissue was fixed overnight in 4% paraformaldehyde, then embedded in paraffin and cut into 5 µm thick slices. Tissue sections were stained with hematoxylin and eosin (H&E). For immunohistochemistry, sections were incubated with primary antibodies against F4/80 (1:100 dilution) diluted in the blocking solution at 4 °C overnight. The tissue sections were then incubated with the horseradish peroxidase (HRP)-conjugated secondary antibody at room temperature for 2 h. Finally, the sections were developed with diaminobenzidine (DAB) and counterstained with hematoxylin. Images were obtained under a microscope. To quantify the F4/80-positive macrophages, two random fields per sample were analyzed by Image J software. The IHC profiler plugin of ImageJ was used to calculate the F4/80 positive area.

glycerol release = test: Glycerol release in eWAT of db/db mice (isoproterenol); format: in vivo; set-up: Glycerol release in eWAT (Figure 4m): unit not given here; details: for Release of glycerol in eWAT: db/db mice, isoproterenol stimulation; for Glycerol release in eWAT (Figure 4m): individual samples 1-6
Description: The epididymal adipose tissue was dissected, the fresh adipose tissue was weighed and rapidly rinsed with PBS. The adipose tissue was cut and incubated with isoproterenol (10 μM) for 2 h, and homogenized in a cold cleavage buffer to prepare the adipose tissue homogenate. Then the homogenate was centrifuged at 12,000 × g at 4 °C for 15 min, and the supernatant was collected. […] Then the cells were lysed in a petri dish, scraped off, and centrifuged at 12,000 × g at 4 °C for 15 min before the supernatant was collected. […] And concentrations were further standardized according to protein concentration.

db/db mice = test: Serum ASAT, ALAT, BUN and Cr (toxicity) in db/db mice; format: in vivo
TNF-α and IL-6 [3] = test: Serum levels of TNF-α and IL-6 (ELISA); format: in vivo, mice; set-up: TNFα / IL-6: unit not given here; details: for IL-6: Figure 5i; for Serum TNF-α and IL-6 levels: db/db mice, 5 weeks of treatment
Description: (§1) The serum was collected by centrifugation at 3000 × g at 4 °C for 15 min and stored at −80 °C until analysis. TG, TC, LDL-C, HDL-C, and FFA were routinely tested on a Chemray 240 automatic biochemical analyzer (Chemray 240, Shenzhen, China). Serum levels of mouse adiponectin, interleukin6 (IL-6), tumor necrosis factor-α (TNF-α) were measured using commercial enzyme-linked immunosorbent assay (ELISA) kits (Nanjing Jiancheng Bioengineering Institute, Nanjing, China) and according to the manufacturer’s instructions. The levels of IL-6, TNF-α in 3T3-L1 adipocyte culture supernatant were also detected by ELISA.

[4] = system: Fasn, Acaca, Lpl, Ucp1, Ppargc1a, Ppargc1b, Elovl3, Cox8b; test: qRT-PCR of lipid-metabolism-related genes (eWAT) and thermogenic genes (BAT); format: in vivo; details: db/db mice; for Expression of lipogenic genes (Fasn, Acaca, Lpl) in eWAT: vs vehicle control
Source text: Total RNA was isolated from 3T3-L1 cells and adipose tissue homogenates using Trizol reagent (Invitrogen, Carlsbad, CA, USA). RNA concentration and purity were examined at 260/280 nm using a nanodrop spectrophotometer (NanoDrop One, Thermo Fisher Scientific, USA). The total RNA was reverse transcribed to cDNA using the EasyScript All-in-One First-Strand cDNA Synthesis SuperMix for qPCR kit (TransGen Biotech, Beijing, China). The quantitative reverse transcription polymerase chain reaction was performed using TransStart Top Green qPCR SuperMix (TransGen Biotech, Beijing, China) and an Applied Biosystems 7500 RealTime PCR System (Life Technologies, USA). Relative expression levels were normalized to gapdh expression and quantified using the 2^-ΔΔCt method. The primers were synthesized by Shanghai Sangon Biotech, and the detailed primer sequences were shown in Supplementary Table 5 in the supplementary materials.

TNF-α and IL-6 [5] = test: TNF-α and IL-6 in supernatant of TNF-α induced 3T3-L1 adipocytes (ELISA); format: cell-based, Murine; set-up: levels of TNF-α / levels of IL-6: unit not given here; details: for Levels of TNF-α and IL-6 in the supernatant: 3T3-L1 adipocytes treated with TNF-α; for levels of TNF-α: Figure 7e
Description: We next examined the role of BJ on TNF-α induced inflammation of differentiated 3T3-L1 adipocytes.
as §1

p-TBK1, p-AMPKα, UCP1 = test: Western blotting of TNF-α induced 3T3-L1 adipocytes; format: cell-based, Murine; set-up: p-TBK1 / p-AMPKα (western blotting, Figure 7j) / UCP1 (western blotting, Figure 7k): unit not given here; details: for p-TBK1: Figure 7i, replicates; for UCP1 (western blotting, Figure 7k) / p-AMPKα (western blotting, Figure 7j): 3T3-L1 adipocytes, replicates 1-3
Description: (§2) The adipose tissue or 3T3-L1 adipocytes were homogenized by ultrasound in an ice‐cold RIPA lysis buffer containing 1% PMSF and centrifuged at 12,000 × g at 4°C for 15 min to collect the supernatant. The BCA protein assay kit (Beyotime, Shanghai, China) was used to detect the total protein concentration. Proteins (20-30 μg) of the sample were separated by 10% SDS-PAGE gel and transferred onto polyvinylidene difluoride (PVDF) membranes. Then the PVDF membranes were blocked in 5% skim milk powder in TBS containing 1% Tween-20 (TBST) for 2 h at room temperature and washed with TBST for 3 times. The membranes were incubated with the appropriate primary antibody, IKKε (1:1000 dilution), TBK1 (1:1000 dilution), p-TBK1 Ser172 (1:1000 dilution), p-AMPKα Thr172 (1:1000 dilution), UCP1 (1:1000 dilution), and GAPDH (1:1000 dilution) in the blocking buffer solution at 4 °C overnight. After washing, the membranes were incubated with horseradish peroxidase-conjugated secondary antibodies (in 5% skim milk powder) for 1 h at room temperature. Finally, the membranes were treated with enhanced chemiluminescence agents (Tanon, Shanghai, China) and the signals were monitored using the Tanon 5200 multi chemiluminescent imaging system (Tanon, Shanghai, China).

[6] = system: IKKε, TBK1, p-TBK1, UCP1, p-AMPKα; test: Western blotting of eWAT; format: in vivo; details: db/db mice
Description: as §2

[7] = 150mg/kg, db/db mice, individual animals

SMILES: COc1ccc2cc3[n+](cc2c1OC)CCc1cc2c(cc1-3)OCO2 [BBR, Berberine chloride dihydrate]
- solubility ([1]; octanol, organic solvent or mixture): 14.3 ± 0.41 µM
- logP ([1]; octanol/water): -0.041
- solubility ([1]; water): 15.8 ± 0.81 µM
- Quantification of immunohistochemical staining ([2]; BBR 150mg/kg): 0.8707 and 0.7836 and 0.9995 and 1.2402 and 1.136 and 0.9532
- Proportion of F4/80-positive macrophages around adipocytes [2]: lower than that of the vehicle-treated db/db mice
- Release of glycerol in eWAT (glycerol release): promoted the release of glycerol
- Glycerol release in eWAT (Figure 4m) (glycerol release; db/db+ISO+BBR 150mg/kg): 626.099 and 631.162 and 626.943 and 630.318 and 632.849
- ALT (db/db mice; [7]): 86 U/L and 97 U/L and 103 U/L and 92 U/L and 85 U/L
- AST (db/db mice; [7]): 125.4 U/L and 140.1 U/L and 155.9 U/L and 114.8 U/L and 154.6 U/L and 172.8 U/L
- BUN (db/db mice; [7]): 8.17 mmol/L and 9.82 mmol/L and 8.93 mmol/L and 9.15 mmol/L and 9.31 mmol/L and 8.1 mmol/L
- Cr (db/db mice; [7]): 17.7 µmol/L and 16.3 µmol/L and 16.4 µmol/L and 17.9 µmol/L and 17.6 µmol/L
- Fasting serum ASAT, ALAT, BUN, and Cr levels (db/db mice; db/db mice, 5 weeks of treatment, vs vehicle control): reduced fasting serum ASAT, ALAT, BUN, and Cr levels
- IL-6 (TNF-α and IL-6 [3]; BBR 150mg/kg, individual values): 24.23 and 30 and 30.18 and 32.12 and 23.56 and 26.45
- TNFα (TNF-α and IL-6 [3]; Figure 5h, BBR 150mg/kg, individual values): 161.97 and 148.57 and 185.98 and 167.03 and 204.23 and 186.47
- Serum TNF-α and IL-6 levels (TNF-α and IL-6 [3]): significantly lower than those in the vehicle-treated group
- Expression of brown fat enrichment genes (Ucp1, Ppargc1a, Ppargc1b, Elovl3, Cox8b) in BAT [4]: elevated express
- Expression of lipogenic genes (Fasn, Acaca, Lpl) in eWAT [4]: downregulation of lipogenic genes
- Levels of TNF-α and IL-6 in the supernatant (TNF-α and IL-6 [5]): significantly reduced the levels of TNF-α and IL-6
- levels of TNF-α (TNF-α and IL-6 [5]; TNF-α(50ng/ml)+10μM BBR, replicates): 111.895 and 109.61 and 99.3949 and 99.3623 and 111.275 and 110.361
- levels of IL-6 (TNF-α and IL-6 [5]; Figure 7f, TNF-α(50ng/ml)+10μM BBR, replicates): 17.4575 and 16.5244 and 17.8031 and 16.7594 and 17.9828 and 16.9875
- p-TBK1 (p-TBK1, p-AMPKα, UCP1; Tnfa + 10um BBR): 0.5119 and 0.483 and 0.454
- UCP1 (western blotting, Figure 7k) (p-TBK1, p-AMPKα, UCP1; Tnfa + 10um): 0.8587 and 1.148 and 0.9274
- p-AMPKα (western blotting, Figure 7j) (p-TBK1, p-AMPKα, UCP1; Tnfa + 10um): 0.5058 and 0.5536 and 0.7822

SMILES: CC(C)Cc1ccc(C(C)C(=O)[O-])cc1.COc1ccc2cc3[n+](cc2c1OC)CCc1cc2c(cc1-3)OCO2.O.O.O.O [BJ, berberine-ibuprofen]
- log P [1]: 1.564
- Quantification of immunohistochemical staining ([2]; BJ 75mg/kg): 0.9922 and 0.9735 and 1.1881 and 1.5389 and 0.7221 and 0.7355
- Quantification of immunohistochemical staining ([2]; BJ 150mg/kg): 0.2082 and 0.4937 and 0.5395 and 0.2725 and 0.374 and 0.2768
- Proportion of F4/80-positive macrophages around adipocytes [2]: lower than that of the vehicle-treated db/db mice
- Release of glycerol in eWAT (glycerol release): promoted the release of glycerol
- Glycerol release in eWAT (Figure 4m) (glycerol release; db/db+ISO+BJ 75mg/kg): 372.977 and 400.82 and 389.008 and 382.258 and 389.852 and 395.758
- AST (db/db mice; [7]): 123.8 U/L
- Fasting serum ASAT, ALAT, BUN, and Cr levels (db/db mice; mouse, in vivo): reduced fasting serum ASAT, ALAT, BUN, and Cr levels
- IL-6 (TNF-α and IL-6 [3]; BJ 75mg/kg, individual values): 26.97 and 31.48 and 28.06 and 26.92 and 26.5 and 27.07
- IL-6 (TNF-α and IL-6 [3]; BJ 150mg/kg, individual values): 19.1 and 22.16 and 23.89 and 18.97 and 21.55 and 28.79
- Serum TNF-α and IL-6 levels (TNF-α and IL-6 [3]): significantly lower than those in the vehicle-treated group
- Expression of brown fat enrichment genes (Ucp1, Ppargc1a, Ppargc1b, Elovl3, Cox8b) in BAT [4]: elevated express
- Expression of lipogenic genes (Fasn, Acaca, Lpl) in eWAT [4]: downregulation of lipogenic genes
- Levels of TNF-α and IL-6 in the supernatant (TNF-α and IL-6 [5]): significantly reduced the levels of TNF-α and IL-6
- levels of TNF-α (TNF-α and IL-6 [5]; TNF-α(50ng/ml)+10μM BJ, replicates): 96.425 and 110.916 and 111.046 and 97.6978 and 106.64 and 114.538
- Expression of UCP1 and phosphorylation of TBK1 at Ser172 in eWAT [6]: increased
- Protein levels of IKKε and TBK1 in eWAT ([6]; both doses of BJ, western blotting): significantly reduced
- AMPKα Thr172 phosphorylation (p-AMPKα) in eWAT ([6]; inhibited in db/db eWAT): restored
- p-TBK1 (p-TBK1, p-AMPKα, UCP1; Tnfa + 3um BJ): 0.5551 and 0.4207 and 0.3485
- p-TBK1 (p-TBK1, p-AMPKα, UCP1; Tnfa + 10um BJ): 0.5649 and 0.4409 and 0.466
- Expression of p-AMPKα, UCP1, and p-TBK1 (p-TBK1, p-AMPKα, UCP1; TNF-α induced 3T3-L1 adipocytes, BJ treatment for 24 h): increased significantly
- UCP1 (western blotting, Figure 7k) (p-TBK1, p-AMPKα, UCP1; Tnfa + 3um): 0.6944 and 0.7423 and 0.5922
- p-AMPKα (western blotting, Figure 7j) (p-TBK1, p-AMPKα, UCP1; Tnfa + 3um): 0.6086 and 0.4894 and 0.5999
- UCP1 (western blotting, Figure 7k) (p-TBK1, p-AMPKα, UCP1; Tnfa + 10um): 1.271 and 1.387 and 0.9844
- p-AMPKα (western blotting, Figure 7j) (p-TBK1, p-AMPKα, UCP1; Tnfa + 10um): 0.7332 and 0.6589 and 0.63
